According to patent US7189758B2, “Glucocorticoid mimetics, methods of making them, pharmaceutical formulations, and uses thereof” (Boehringer Ingelheim Pharmaceuticals, Inc., priority 2002, dated 2007):

System: glucocorticoid receptor
Assay: not given
Settings: in one or more of the above assays; assay not specified
Procedure: Evaluation of agonist or antagonist activity of compounds binding to the glucocorticoid receptor may be determined by any of the assays.
3. Modulation of Tyrosine Aminotransferase (TAT) Induction in Rat Hepatoma Cells
Testing of compounds for agonist or antagonist activity in induction of tyrosine aminotransferase (TAT) in rat hepatoma cells.
H4-II-E-C3 cells were incubated overnight in 96 well plates (20,000 cells/100 μL/well) in MEM medium containing 10% heat inactivated FBS and 1% nonessential amino acids. On the next day, cells were stimulated with the indicated concentrations of dexamethasone or test compound (dissolved in DMSO, final DMSO concentration 0.2%) for 18 hours. Control cells were treated with 0.2% DMSO. After 18 hours, the cells were lysed in a buffer containing 0.1% Triton X-100 and the TAT activity was measured in a photometric assay using tyrosine and alpha-ketoglutarate as substrates.
For measuring antagonist activity, the hepatoma cells were pre-stimulated by addition of dexamethasone (concentration ranges from 3×10^−9 M to 3×10^−8 M) shortly before the test compound was applied to the cells.
4. Modulation of MMTV-Luc Induction in HeLa Cells
Testing of compounds for agonist or antagonist activity in stimulation of MMTV-(mouse mammary tumor virus) promoter in HeLa cells. […]

SMILES | activity as antagonists of the glucocorticoid receptor function
CC(C)(CC(O)(CC1CCCCC1)C(=O)Nc1ccc2c(c1)COC2=O)c1ccccc1 (stereo not shown) [2-Cyclohexylmethyl-2-hydroxy-4-methyl-4-phenylpentanoic acid (1-oxo-1,3-dihydroisobenzofuran-5-yl)amide] | activity as antagonists
CC(C)(CC(O)(Cc1ccccc1)C(=O)Nc1ccc2c(c1)COC2=O)c1ccccc1 (stereo not shown) [2-Benzyl-2-hydroxy-4-methyl-4-phenylpentanoic acid (1-oxo-1,3-dihydroisobenzofuran-5-yl)amide] | activity as antagonists

Biological target: T1, human glucocorticoid receptor (GR) complex (Homo sapiens, UniProt P04150)
T1 construct: made in house; host or cells: insect cells (baculovirus expression), used as crude lysate
T1 sequence (P04150 1-777): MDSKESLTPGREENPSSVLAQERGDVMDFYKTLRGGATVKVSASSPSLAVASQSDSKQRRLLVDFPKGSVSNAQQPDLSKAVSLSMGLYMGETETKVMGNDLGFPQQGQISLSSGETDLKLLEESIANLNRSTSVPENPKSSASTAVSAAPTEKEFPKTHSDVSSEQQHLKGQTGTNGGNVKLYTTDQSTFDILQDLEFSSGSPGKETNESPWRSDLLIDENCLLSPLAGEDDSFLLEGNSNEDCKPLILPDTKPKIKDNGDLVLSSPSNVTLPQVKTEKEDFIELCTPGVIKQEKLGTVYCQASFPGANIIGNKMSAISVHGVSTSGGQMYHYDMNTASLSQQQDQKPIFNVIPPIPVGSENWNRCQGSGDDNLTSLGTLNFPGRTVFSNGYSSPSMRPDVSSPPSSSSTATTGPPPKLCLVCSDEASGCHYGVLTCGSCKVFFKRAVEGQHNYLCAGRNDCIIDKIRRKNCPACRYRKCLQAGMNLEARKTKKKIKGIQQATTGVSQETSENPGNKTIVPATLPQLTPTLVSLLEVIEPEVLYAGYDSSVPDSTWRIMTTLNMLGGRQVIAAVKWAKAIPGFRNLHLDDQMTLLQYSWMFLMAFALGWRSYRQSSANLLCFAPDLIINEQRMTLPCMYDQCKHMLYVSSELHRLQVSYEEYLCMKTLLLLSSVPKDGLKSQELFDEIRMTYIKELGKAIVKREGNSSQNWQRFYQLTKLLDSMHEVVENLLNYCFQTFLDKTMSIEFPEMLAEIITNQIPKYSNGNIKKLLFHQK
Assay: Glucocorticoid receptor competitive binding assay (fluorescence polarization, TAMRA-labeled dexamethasone probe)
Settings: result in words only; IC50 values not given
Procedure: Compounds of the invention were evaluated for binding to the steroid receptor by a fluorescence polarization competitive binding assay.
A. Glucocorticoid Receptor Competitive Binding Assay
Step 1. Characterization of the Fluorescent Probe
The wavelengths for maximum excitation and emission of the fluorescent probe should first be measured. An example of such a probe is rhodamine (TAMRA)-labeled dexamethasone.
The affinity of the probe for the steroid receptor was then determined in a titration experiment. The fluorescence polarization value of the probe in assay buffer was measured on an SLM-8100 fluorometer using the excitation and emission maximum values described above. Aliquots of expression vector lysate were added and fluorescence polarization was measured after each addition until no further change in polarization value was observed. Non-linear least squares regression analysis was used to calculate the dissociation constant of the probe from the polarization values obtained for lysate binding to the probe.
Step 2. Screening for Inhibitors of Probe Binding
This assay uses fluorescence polarization (FP) to quantitate the ability of test compounds to compete with tetramethyl rhodamine (TAMRA)-labeled dexamethasone for binding to a human glucocorticoid receptor (GR) complex prepared from an insect expression system. The assay buffer was: 10 mM TES, 50 mM KCl, 20 mM Na2MoO4.2H2O, 1.5 mM EDTA, 0.04% w/v CHAPS, 10% v/v glycerol, 1 mM dithiothreitol, pH 7.4. Test compounds were dissolved to 1 mM in neat DMSO and then further diluted to 10× assay concentration in assay buffer supplemented with 10% v/v DMSO. Test compounds were serially diluted at 10× assay concentrations in 10% DMSO-containing buffer in 96-well polypropylene plates. Binding reaction mixtures were prepared in 96-well black Dynex microtiter plates by sequential addition of the following assay components to each well: 15 μL of 10× test compound solution, 85 μL of GR-containing baculovirus lysate diluted 1:170 in assay buffer, and 50 μL of 15 nM TAMRA-labeled dexamethasone. Positive controls were reaction mixtures containing no test compound; negative controls (blanks) were reaction mixtures containing 0.7 μM to 2 μM dexamethasone. […] IC50 values were determined by iterative non-linear curve fitting of the FP signal data to a 4-parameter logistic equation.

SMILES | activity in the GR binding assay
CC(C)(CC(O)(CC1CCCCC1)C(=O)Nc1ccc2c(c1)COC2=O)c1ccccc1 (stereo not shown) [2-Cyclohexylmethyl-2-hydroxy-4-methyl-4-phenylpentanoic acid (1-oxo-1,3-dihydroisobenzofuran-5-yl)amide] | potent activity
CC(C)(CC(O)(Cc1ccccc1)C(=O)Nc1ccc2c(c1)COC2=O)c1ccccc1 (stereo not shown) [2-Benzyl-2-hydroxy-4-methyl-4-phenylpentanoic acid (1-oxo-1,3-dihydroisobenzofuran-5-yl)amide] | potent activity
CC(C)(CC(O)(CC1CCCC1)C(=O)Nc1ccc2c(c1)COC2=O)c1cc(F)ccc1O (stereo not shown) [2-Cyclopentylmethyl-4-(5-fluoro-2-hydroxyphenyl)-2-hydroxy-4-methylpentanoic acid (1-oxo-1,3-dihydroisobenzofuran-5-yl)amide] | potent activity
Cc1ccccc1CC(O)(CC(C)(C)c1cc(F)ccc1O)C(=O)Nc1ccc2c(c1)COC2=O (stereo not shown) [4-(5-Fluoro-2-hydroxyphenyl)-2-hydroxy-4-methyl-2-(2-methylbenzyl)pentanoic acid (1-oxo-1,3-dihydroisobenzofuran-5-yl)amide] | potent activity
COc1ccc(F)cc1C(C)(C)CC(O)(Cc1ccccc1)C(=O)Nc1ccc2c(=O)onc(C)c2c1 (stereo not shown) [2-Benzyl-4-(5-fluoro-2-methoxyphenyl)-2-hydroxy-4-methylpentanoic acid (4-methyl-1-oxo-1H-benzo[d][1,2]oxazin-6-yl)amide] | potent activity
COc1ccc(F)cc1C(C)(C)CC(O)(Cc1cccc(F)c1)C(=O)Nc1ccc2c(c1)COC2=O (stereo not shown) [2-(3-Fluorobenzyl)-4-(5-fluoro-2-methoxyphenyl)-2-hydroxy-4-methylpentanoic acid (1-oxo-1,3-dihydroisobenzofuran-5-yl)amide] | potent activity
CC(c1ccccc1)C(O)(CC(C)(C)c1cc(F)ccc1O)C(=O)Nc1ccc2c(c1)COC2=O (stereo not shown) [4-(5-Fluoro-2-hydroxyphenyl)-2-hydroxy-4-methyl-2-(1-phenylethyl)pentanoic acid (1-oxo-1,3-dihydroisobenzofuran-5-yl)amide] | potent activity
CC(C)(CC(O)(CC(C)(C)c1ccccc1)C(=O)Nc1ccc2c(c1)COC2=O)c1ccccc1 [2-Hydroxy-4-methyl-2-(2-methyl-2-phenylpropyl)-4-phenylpentanoic acid (1-oxo-1,3-dihydroisobenzofuran-5-yl)amide] | potent activity
CC(C)(CC(O)(CCc1ccccc1)C(=O)Nc1ccc2c(c1)COC2=O)c1cc(F)ccc1O (stereo not shown) [4-(5-Fluoro-2-hydroxyphenyl)-2-hydroxy-4-methyl-2-phenethylpentanoic acid (1-oxo-1,3-dihydroisobenzofuran-5-yl)amide] | potent activity
COc1ccc(F)cc1C(C)(C)CC(O)(CC1CCCCC1)C(=O)Nc1ccc2c(c1)COC2=O (stereo not shown) [2-Cyclohexylmethyl-4-(5-fluoro-2-methoxyphenyl)-2-hydroxy-4-methylpentanoic acid (1-oxo-1,3-dihydroisobenzofuran-5-yl)amide] | potent activity
CC(C)(CC(O)(C(=O)Nc1ccc2c(c1)COC2=O)C1CCCC1)c1cc(F)ccc1O (stereo not shown) [2-Cyclopentyl-4-(5-fluoro-2-hydroxyphenyl)-2-hydroxy-4-methylpentanoic acid (1-oxo-1,3-dihydroisobenzofuran-5-yl)amide] | potent activity
CC(C)(CC(O)(Cc1ccccc1Cl)C(=O)Nc1ccc2c(c1)COC2=O)c1cc(F)ccc1O (stereo not shown) [2-(2-Chlorobenzyl)-4-(5-fluoro-2-hydroxyphenyl)-2-hydroxy-4-methylpentanoic acid (1-oxo-1,3-dihydroisobenzofuran-5-yl)amide] | potent activity
CC(C)(CC(O)(Cc1ccccc1Br)C(=O)Nc1ccc2c(c1)COC2=O)c1cc(F)ccc1O (stereo not shown) [2-(2-Bromobenzyl)-4-(5-fluoro-2-hydroxyphenyl)-2-hydroxy-4-methylpentanoic acid (1-oxo-1,3-dihydroisobenzofuran-5-yl)amide] | potent activity
CC(C)(CC(O)(Cc1ccc(F)cc1)C(=O)Nc1ccc2c(c1)COC2=O)c1cc(F)ccc1O (stereo not shown) [2-(4-Fluorobenzyl)-4-(5-fluoro-2-hydroxyphenyl)-2-hydroxy-4-methylpentanoic acid (1-oxo-1,3-dihydroisobenzofuran-5-yl)amide] | potent activity
